From paper PMC4580987, “Catalytic site inhibition of insulin-degrading enzyme by a small molecule induces glucose intolerance in mice” (Nature Communications, 2015)
“Also recorded” adds a separate entry of the source.

Experiments:
human ACE = biological target: T1, human ACE (Homo sapiens, UniProt P12821); test: ACE selectivity assay; assay type: biochemical; details: >10 μM stands for <10% at 10 μM; read-out: Selectivity IC50 hACE
T1 construct: purchased R&D Systems
Description: Briefly, human NEP (R&D Systems; 200 ng ml^−1) was incubated 10 min at room temperature with compound in Hepes 50 mM, NaCl 100 mM, pH 7.4 and the enzymatic reaction started by adding the substrate (final concentration 200 μM). […] Briefly, human ACE (R&D Systems) was incubated 10 min at room temperature with compound in Tris 50 mM 1% NaCl pH 7.4 and the enzymatic reaction is started by adding the substrate (final concentration 300 μM). […] In vitro activity was assayed at CEREP.SA as follows.

hIDE = biological target: T2, hIDE (Homo sapiens, UniProt P14735); test: Small-angle X-ray scattering (SAXS) of hIDE conformation
T2 construct: made in house
T2 sequence (P14735 1-1019): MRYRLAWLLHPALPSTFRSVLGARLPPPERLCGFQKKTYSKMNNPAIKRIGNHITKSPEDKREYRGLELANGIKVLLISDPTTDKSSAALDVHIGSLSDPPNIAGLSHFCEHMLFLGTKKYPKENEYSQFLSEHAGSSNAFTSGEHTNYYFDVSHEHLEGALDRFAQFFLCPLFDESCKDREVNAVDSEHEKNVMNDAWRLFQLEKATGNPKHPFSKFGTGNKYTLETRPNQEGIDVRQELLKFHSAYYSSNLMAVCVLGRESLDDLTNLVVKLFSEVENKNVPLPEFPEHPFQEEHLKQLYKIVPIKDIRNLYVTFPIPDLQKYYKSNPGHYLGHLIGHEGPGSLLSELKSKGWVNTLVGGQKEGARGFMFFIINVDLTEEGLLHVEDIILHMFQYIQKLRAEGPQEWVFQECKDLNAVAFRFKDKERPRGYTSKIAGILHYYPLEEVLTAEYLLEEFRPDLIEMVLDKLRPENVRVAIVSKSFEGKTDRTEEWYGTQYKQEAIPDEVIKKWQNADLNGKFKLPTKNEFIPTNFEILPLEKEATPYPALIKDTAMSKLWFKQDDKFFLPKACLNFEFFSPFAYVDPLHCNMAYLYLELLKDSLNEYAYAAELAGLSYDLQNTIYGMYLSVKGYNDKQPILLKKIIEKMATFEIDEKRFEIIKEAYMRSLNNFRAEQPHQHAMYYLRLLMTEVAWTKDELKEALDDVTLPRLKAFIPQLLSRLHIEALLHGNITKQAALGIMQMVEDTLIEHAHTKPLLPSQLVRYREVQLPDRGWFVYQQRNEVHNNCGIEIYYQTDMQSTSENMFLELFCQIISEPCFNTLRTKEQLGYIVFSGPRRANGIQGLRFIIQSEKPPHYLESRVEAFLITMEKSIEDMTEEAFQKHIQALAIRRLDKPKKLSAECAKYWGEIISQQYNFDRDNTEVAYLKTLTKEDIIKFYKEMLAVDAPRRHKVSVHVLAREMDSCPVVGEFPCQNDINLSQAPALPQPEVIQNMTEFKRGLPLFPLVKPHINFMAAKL
Description: SAXS data were collected at the APS 18-ID (BioCAT) with the Mar 165 CCD detector at room temperature (24 °C). The incident X-ray wavelength is 1.033 Å. hIDE was purified as described before. After 2 gel-filtration, hIDE was concentrated and dialysis against 20 mM Hepes, pH 7.2, 100 mM NaCl. […] The data reducing and all data processing were carried out using ATSAS. P(r) function was calculated with GNOM[44], and SAXS data fitting was performed with CRYSOL[45].

C57BL/6J mice = test: Pyruvate tolerance test; assay type: in vivo, mouse; details: 50 mg kg^−1 ip, pyruvate 2 g kg^−1
Description: Pyruvate tolerance test was performed on 18 h-fasted mice (12 week-old male C57BL/6J mice, n=8 for each group, randomized on blood glucose at the end of the fasting period). […] Fifteen minutes later, blood glucose was measured before and after (up to 120 min) intraperitoneal sodium pyruvate (2 g kg^−1) injection. The AUC of glycaemia versus time were calculated to estimate the total glucose synthesized from pyruvate. Blood glucose levels were determined using an Accu-Check glucometer (Roche Diagnostics). The protocol was approved by the ethical comitee CEEA Nord Pas de Calais (CEEA75).

T1 sequence (P12821 30-1306): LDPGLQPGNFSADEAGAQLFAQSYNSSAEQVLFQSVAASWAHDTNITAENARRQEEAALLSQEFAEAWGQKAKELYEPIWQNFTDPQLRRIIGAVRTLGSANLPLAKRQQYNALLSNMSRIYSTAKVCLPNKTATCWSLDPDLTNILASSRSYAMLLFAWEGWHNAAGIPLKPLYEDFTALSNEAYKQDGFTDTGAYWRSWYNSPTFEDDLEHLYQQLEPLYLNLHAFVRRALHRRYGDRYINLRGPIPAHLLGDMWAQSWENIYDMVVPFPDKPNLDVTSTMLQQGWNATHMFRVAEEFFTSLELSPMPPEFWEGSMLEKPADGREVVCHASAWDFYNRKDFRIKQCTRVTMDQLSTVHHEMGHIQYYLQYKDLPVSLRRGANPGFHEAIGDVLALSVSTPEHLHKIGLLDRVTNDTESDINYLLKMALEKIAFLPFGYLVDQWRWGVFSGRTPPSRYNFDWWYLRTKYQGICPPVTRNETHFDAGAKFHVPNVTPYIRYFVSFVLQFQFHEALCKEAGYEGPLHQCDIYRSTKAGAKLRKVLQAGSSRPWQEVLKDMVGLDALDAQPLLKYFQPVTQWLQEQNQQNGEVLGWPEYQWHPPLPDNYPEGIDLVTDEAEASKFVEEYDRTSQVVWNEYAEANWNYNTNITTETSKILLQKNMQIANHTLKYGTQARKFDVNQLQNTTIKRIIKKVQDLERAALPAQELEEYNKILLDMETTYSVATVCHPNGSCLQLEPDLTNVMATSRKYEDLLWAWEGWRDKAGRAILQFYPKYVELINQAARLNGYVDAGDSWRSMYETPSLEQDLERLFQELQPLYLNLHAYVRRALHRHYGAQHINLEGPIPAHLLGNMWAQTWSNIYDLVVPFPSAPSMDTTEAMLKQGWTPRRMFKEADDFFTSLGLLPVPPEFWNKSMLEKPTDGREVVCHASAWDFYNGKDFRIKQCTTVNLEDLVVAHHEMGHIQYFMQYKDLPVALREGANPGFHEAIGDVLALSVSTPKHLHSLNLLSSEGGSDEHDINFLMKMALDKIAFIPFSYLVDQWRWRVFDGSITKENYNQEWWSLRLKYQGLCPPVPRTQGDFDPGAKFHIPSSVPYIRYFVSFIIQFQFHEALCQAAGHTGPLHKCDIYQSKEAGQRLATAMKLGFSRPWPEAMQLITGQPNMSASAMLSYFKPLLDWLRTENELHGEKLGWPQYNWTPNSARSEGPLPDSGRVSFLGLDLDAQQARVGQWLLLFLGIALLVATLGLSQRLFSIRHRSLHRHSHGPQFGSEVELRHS

Compound: O=C(C[C@@H](Cc1ccc2ccccc2c1)n1cc(CNC(=O)c2ccc(F)cc2)nn1)NO [Compound 1]
- IC50 (human ACE): > 10 µM
- radius of gyration (Rg) of IDE with compound (hIDE; 53.1 Å without compound): 47.6 Å
- Dmax of IDE with compound (hIDE; 180 Å without compound): 160 Å
- fraction of IDE in the open conformation with compound (hIDE; ∼63% open in the absence of compound, fit of SAXS profile): ~16%
- hepatic gluconeogenesis in pyruvate tolerance test (C57BL/6J mice): No effect on gluconeogenesis; also recorded: not altered
